Molecular target: T1, human β3 adrenergic receptor (Homo sapiens, UniProt P13945)
T1 construct: expressed in transfected cells; host or cells: CHO cells (clone G4-I, kept under Geneticin selection)
Assay: cAMP production in G4-I cells, stimulating activity of human β3 adrenergic receptor (cAMP EIA)
Type: cell-based
Conditions: cAMP production relative to isoproterenol maximum, CHO cells (G4-I) expressing human β3 receptor
Protocol: Representative compounds of the invention were assayed for their stimulating activity of human β3 adrenergic receptor. In the tests, there was used G4-I cloned with CHO cells expressing human β3 adrenergic receptor genes. A cAMP EIA kit for use was available from Amersham Farmacia.
G4-I was incubated under the atmosphere of 5% CO2 at 37° C. in a Han's F12 Nutrient Mixture medium containing 10% fetal calf serum, penicillin 100 U/mL, streptomycin 100 μg/mL, amphotericin B 25 μg/mL and Geneticin 400 μg/mL. When the reaction for cAMP production was carried out, frozen cells stocked were incubated for 3 days and then treated with trypsin to prepare a cell suspension. The cell suspension was diluted to 2×10^5 cells/mL with the medium. Then 1 ml each of the diluted suspension was dispensed into a 12-well plate dish.
The cells cultured for 24 hours were used to carry out the cAMP production reaction.
The culture medium was removed from the cells incubated on the 12-well plate dish. The cells were washed twice with 1 mL of Wash Buffer previously warmed to 37° C. and then 0.9 mL of Reaction Buffer was added. Cultivation was carried out on a water bath at 37° C. for 5 minutes and then 0.1 mL of an aqueous solution of the test compound or isoproterenol was added thereto. Reaction was further allowed to take place at 37° C. for 30 minutes. The reaction solution was taken out and then washed twice with 2 mL of D-PBS(-) followed by addition of 1 mL of the Extraction Buffer. The extraction procedure was performed using a plate mixer at 4° C. for 1 hour. The extract was stored at −20° C.
The cell extract frozen at −20° C. was thawed at 4° C. The cAMP of the extract in each well was assayed by means of a cAMP-EIA kit manufactured by Amersham Farmacia. Assay was performed in accordance with the manual attached to the kit. Adsorbance in a 96-well plate was determined using a microplate reader (Model Spectra MAX 250) manufactured by Molecular Device.
The protein amount of the above cell extract was assayed according to the dye-binding method using a CBB solution for quantitative determination of protein (available from Bio-Rad). Bovine serum albumin was used as a protein standard, and absorbance was determined using the above microplate reader (Model Spectra MAX 250) manufactured by Molecular Device.
Determination of cAMP and protein amounts was carried out in duplicate and mean values were adopted as measured values. The cAMP production amount of each sample was represented in terms of a numerical value of the cAMP amount (pmol) divided by cell protein amount (mg) (pmol/mg protein). […] For each sample, cAMP production amount was calculated and a relative cAMP production amount to the maximum cAMP production amount of isoproterenol (% of isoproterenol Max) was determined.

T1 sequence (P13945 whole entry): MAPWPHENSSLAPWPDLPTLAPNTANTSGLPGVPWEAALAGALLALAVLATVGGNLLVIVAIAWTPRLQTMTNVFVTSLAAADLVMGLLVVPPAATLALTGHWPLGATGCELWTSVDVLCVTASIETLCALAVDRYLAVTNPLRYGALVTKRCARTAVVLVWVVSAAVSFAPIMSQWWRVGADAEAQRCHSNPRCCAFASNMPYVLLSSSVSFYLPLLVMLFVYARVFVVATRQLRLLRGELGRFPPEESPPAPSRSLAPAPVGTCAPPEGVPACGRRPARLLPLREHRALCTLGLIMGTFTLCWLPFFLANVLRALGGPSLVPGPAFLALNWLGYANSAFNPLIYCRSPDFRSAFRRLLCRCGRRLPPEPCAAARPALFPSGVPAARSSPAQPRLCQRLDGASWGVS

C[C@H](Cc1ccc2c(c1)OC[C@H](C(=O)O)O2)NC[C@H](O)COc1ccc(O)c(NS(C)(=O)=O)c1 [Example 2, 6-[2-(R)-[2-(S)-Hydroxy-3-(4-hydroxy-3-methanesulfonamidophenoxy)propylamino]propyl]-2,3-dihydro-1,4-benzodioxine-2-(R)-carboxylic acid]
Intrinsic Activity (% of ISP) (test compound 1 μM): 76 % of ISP

CS(=O)(=O)Nc1cc(OC[C@@H](O)CNCCc2ccc3c(c2)OC[C@H](C(=O)O)O3)ccc1O [Example 4, 6-[2-[2-(S)-Hydroxy-3-(4-hydroxy-3-methanesulfonamido-phenoxy]propylamino]ethyl]-2,3-dihydro-1,4-benzodioxine-2-(R)-carboxylic acid]
Intrinsic Activity (% of ISP) (test compound 1 μM): 98 % of ISP

C[C@H](Cc1ccc2c(c1)OC[C@H](C(=O)O)O2)NC[C@H](O)COc1ccc(O)cc1 [Example 12, 6-[2-(R)-[2-(S)-Hydroxy-3-(4-hydroxyphenoxy)propylamino]-propyl]-2,3-dihydro-1,4-benzodioxine-2-(R)-carboxylic acid]
Intrinsic Activity (% of ISP) (test compound 10 μM): 73 % of ISP

COc1cc(O)ccc1OC[C@@H](O)CN[C@H](C)Cc1ccc2c(c1)OC[C@H](C(=O)O)O2 [Example 16, 6-[2-(R)-[2-(S)-Hydroxy-3-(4-hydroxy-2-methoxyphenoxy)-propylamino]propyl]-2,3-dihydro-1,4-benzodioxine-2-(R)-carboxylic acid]
Intrinsic Activity (% of ISP) (test compound 1 μM): 61 % of ISP

Reference: patent US7022732B2, “Propanolamine derivative having 1, 4-benzodioxane ring” (Nisshin Pharma Inc., priority 2001, dated 2006)
